Data as given in patent US12163158B2, “Organoid and method for producing same” (priority 2017, dated 2024).

Columns and labels:
Format in all cases: cell-based
[1] = test system: mouse ES cell-derived heart organoid; assay: Ca2+ measurement of drug responsiveness in heart organoids; details: 1 μM isoproterenol vs absence (control); 15-second recording; Fluo8 fluorescence; FIG. 40
Method: The heart organoids were washed twice with PBS and immersed in a 4 μM green fluorescent intracellular calcium indicator Fluo8 AM (acetoxymethyl) or Fluo8 AM/F127, freshly diluted with Tyrode's solution containing 1.8 mM Ca^2+, at 37° C. for 15 to 30 minutes. Thereafter, the heart organoids were washed twice with PBS, treated with 200 μL of Tyrode's solution, mounted, and observed with a fluorescence microscope (manufactured by Keyence Corporation). Specifically, first, Ca^2+ measurement was performed by the method described above (Ca Measurement) in the presence and absence (control) of 1 μM isoproterenol, which is an adrenergic […] agonist. A 15-second recording (movie) was taken, and image analysis was performed to detect the change in the intensity (Y-axis) of the fluorescent signal with time (X-axis).

[2] = test system: mouse ES cell-derived embryoid bodies; assay: Heart organoid formation from embryoid bodies on LN/ET gel in the presence of FGF protein; details: bFGF instead of FGF4; not shown in the figure
Method: For the purpose of attempting to mimic such a process of developing a heart in the living body, as shown in the lower stage of FIG. 1, first, mouse ES cells were cultured in a low-binding U-bottom 96-well plate in the absence of leukemia inhibitory factor (LIP) to obtain complete embryoid bodies (EB) (1000 to 5000 cells/embryoid body). […]

[3] = test system: human iPS cells (253G1) embryoid bodies; assay: Formation of heart and lung organoids from human iPS cells under conditions I to IV; details: embryoid bodies on gelated LN/ET complex; at collection (day 13 of culture or later); FIG. 49

In the case of `CC(C)NCC(O)c1ccc(O)c(O)c1` (stereo not drawn) [isoproterenol], the “change of Ca signal cycle in heart organoids” value [1] is reported as “shorten the Ca signal cycle (tachycardia-like)”.

With “bFGF: fibroblast growth factor 2 (FGF2, bFGF)” the “production of beating heart organoid” value [2] was “successfully produced the same beating heart organoid”.

B1: condition II: additive to medium: FGF4 (30 ng/mL) (protein, UniProt P08620 31-206, looked up)
Fibroblast growth factor 4: APTAPNGTLEAELERRWESLVALSLARLPVAAQPKEAAVQSGAGDYLLGIKRLRRLYCNVGIGFHLQALPDGRIGGAHADTRDSLLELSPVERGVVSIFGVASRFFVAMSSKGKLYGSPFFTDECTFKEILLPNNYNAYESYKYPGMFIALSKNGKTKKGNRVSPTMKVTHFLPRL
For B1, the “efficiency of producing heart organoids and lung organoids (combined heart and lung, separated heart and lung)” value [3] was 62.5%.
